Assay results: EP4775580A1, “COMPOUND, PHARMACEUTICAL COMPOSITION COMPRISING SAME, AND USE THEREOF” (Euregen Biopharma Co., Ltd., priority 2023, dated 2025)
pIC50: −log10 of the molar value. Where two headings read alike, the source gives them in different places.

Legend:
MV-4-11 cells [1] = assay: Antiproliferative activity against MV-4-11 cells (CTG method, 72 h); type: cell-based; conditions: Homo sapiens, MV4-11, 72 hours incubation, CellTiter-Glo
From the text: • 1. Experimental Principle: MV-4-11 is a human leukemia cell line harboring MLL translocation and expressing the MLL fusion protein MLL-AF4. […] Experimental Materials: CellTiter-Glo was purchased from Promega (Cat. #G7571); IMDM medium was purchased from Gibco (Cat. #12440061); fetal bovine serum was purchased from Excell (Cat. #FND500); dimethyl sulfoxide (DMSO) was purchased from Sigma (Cat. #D2650); 384-well cell culture plates were purchased from Corning (Cat. #3756); automated cell counter was obtained from Life Technologies (Model: Countess II); microplate reader was obtained from PerkinElmer (Model: EnVision Multilabel Reader). • 3. Experimental Methods: Cells in logarithmic growth phase were resuspended in growth medium (IMDM + 10% FBS) and diluted to the target density (50,000/mL). The cell suspension was seeded into 384-well plates at 50 µL per well and incubated overnight at 37°C in a 5% CO2 incubator.
Test compounds were dissolved in DMSO to prepare 10 mM stock solutions. The stock solutions were first diluted to 2 mmol/L with DMSO, followed by 3-fold serial dilutions to generate 10 concentrations. From each concentration, 5.5 µL was diluted with 94.5 µL growth medium. The diluted solutions were then added to the 384-well plates containing seeded cells at 5 µL per well.
Cells treated with test compounds were incubated at 37°C in a 5% CO2 incubator for 72 hours. The 384-well plates were equilibrated at room temperature, and 15 µL of CellTiter-Glo reagent was added to each well. The plates were mixed on a vortex mixer for 2 minutes and incubated at room temperature for 60 minutes. Luminescence values were read using the EnVision Multilabel Reader, and IC50 values were calculated using GraphPad Prism 5.0 software.

MV-4-11 cells [2] = assay: Antiproliferative activity, CellTiter-Glo, 7 days (Test Example 2), MV-4-11; type: cell-based; conditions: Homo sapiens, MV4-11, 168 h, 7 days incubation
From the text: (§1) [0134] 1. Experimental Principle: MV-4-11, Molm-13, and OCI-AML-3 cells are human hematologic tumor cell lines harboring the Menin-MLL fusion. HL-60 is a wild-type human hematologic tumor cell line without Menin-MLL fusion. […] 2. Experimental Materials: MV-4-11, Molm-13, OCI-AML-3, and HL-60 cells were all purchased from Cobioer; CellTiter-Glo® was purchased from Promega (Cat. #G7571); RPMI-1640 was purchased from Viva Cell (Cat. #C3010-0500); IMDM was purchased from Viva Cell (Cat. #C3040-0500); fetal bovine serum (FBS) was purchased from Biosera (Cat. #FB-1058/500); penicillin-streptomycin was purchased from BasalMedia (Cat. #S110JV); 0.25% Trypsin-EDTA was purchased from BasalMedia (Cat. #S310KJ); dimethyl sulfoxide (DMSO) was purchased from Sinopharm (Cat. #30072418); 96-well plates were purchased from Corning (Cat. #3610); incubator was obtained from PHCbi (Model: MCO-18AC); inverted microscope was obtained from Mingmei (Cat. #MI52-0); automated cell counter was obtained from BodBoge (Model: JSY-SC-031N); microplate reader was obtained from PerkinElmer (Model: Envision); data processing software: GraphPad Prism 8.0. 3. Experimental Methods: Four cell lines in logarithmic growth phase were resuspended in their respective growth media (MV-4-11: IMDM + 20% FBS; Molm-13: RPMI-1640 + 20% FBS; OCI-AML-3: RPMI-1640 + 20% FBS; HL-60: RPMI-1640 + 10% FBS) and diluted to target densities (12,500, 6,250, 12,500, and 12,500/mL, respectively). The cell suspensions were seeded into 96-well plates at 80 µL per well and incubated overnight at 37°C in a 5% CO2 incubator. Culture medium served as the background control. Test compounds were dissolved in DMSO to prepare 10 mmol/L stock solutions. The stock solutions were first diluted to 2 mmol/L with DMSO, followed by 4-fold serial dilutions to generate 10 concentrations. From each concentration, 2 µL was diluted with 78 µL growth medium. […] After incubation at room temperature for 10 minutes, luminescence values were read using the EnVision microplate reader, and IC50 values were calculated using GraphPad Prism 8.0 software. […]

HL-60 cells = assay: Antiproliferative activity, CellTiter-Glo, 7 days (Test Example 2), HL-60; type: cell-based; conditions: Homo sapiens, 168 h, HL-60 cells (no Menin-MLL fusion), 7 days incubation
From the text: as §1

[3] = Pharmacokinetics in rats after single IV and PO administration (LC-MS/MS); type: in vivo, male SD rats; conditions: SD rats, comparative compounds; for PO F: PO 10 mg/kg vs IV 1 mg/kg according to Table 3; for AUC(0-t) / clearance / Cmax / Vd / half-life: male, rat, plasma; for clearance: read-out: IV CL; for Vd: read-out: IV Vss
Description: • 1. Objective: This study aimed to characterize the pharmacokinetic properties of selected compounds from the examples of the present invention in SD rats following single intravenous (IV) injection and oral (PO) administration using LC-MS/MS methodology. • 2. Experimental Materials: Test compounds were prepared according to the examples of the present invention; male SD rats were obtained from the Laboratory Animal Department of Shanghai Institute of Planned Parenthood Research (License No. SCXK(Shanghai)2018-0006) or Shanghai Jihui Laboratory Animal Breeding Co., Ltd. (License No. SCXK(Shanghai)2022-0009). • 3. Experimental Methods: Preparation of 0.5% methylcellulose: 5 g of methylcellulose was weighed and dissolved in 1000 mL of purified water. Preparation of 0.5% methylcellulose (pH = 5.03): 5 g of methylcellulose was weighed and dissolved in 1000 mL of purified water, and the pH was adjusted to 5.03 with 100 mM citric acid.
Preparation of oral formulations: The required amount of test compound was weighed and dissolved in 0.5% methylcellulose solution or 0.5% methylcellulose (pH = 5.03) to obtain a suspension or solution at 1 or 3 mg/mL.
Preparation of intravenous injection formulations: The required amount of test compound (EB229, EB300, EB341, EB342) was weighed and dissolved in 0.5 mL dimethyl sulfoxide to prepare a 4 mg/mL solution. To 0.25 mL of this solution, 0.5 mL of polyethylene glycol 15-hydroxystearate (Solutol) and 4.25 mL of normal saline were added to obtain a 0.2 mg/mL solution. For EB834, 6 mg was weighed and dissolved in 0.1 mL dimethyl sulfoxide, followed by addition of 0.2 mL polyethylene glycol 15-hydroxystearate (Solutol) and 1.7 mL normal saline to obtain a 3 mg/mL solution.
Dosing: Male SD rats were fasted overnight prior to oral (PO) administration; fasting was not required for the single intravenous (IV) injection group. Food was provided 4 hours post-dosing.
Sample Collection: Blood was collected from the jugular vein or other suitable veins, with 0.2 mL collected at each time point. Samples were placed in tubes containing dipotassium ethylenediaminetetraacetate and kept on ice prior to centrifugation. Within 1 hour of blood collection, samples were centrifuged at 6800 × g for 6 minutes at 2-8°C and stored at -80°C.

[4] = IV, dose 1 mg/kg according to Table 3, read-out: IV AUC(0-t)
[5] = IV, dose 1 mg/kg according to Table 3
[6] = IV, dose 1 mg/kg according to Table 3, read-out: IV Cmax
[7] = IV, dose 1 mg/kg according to Table 3, read-out: IV t1/2 (converted)
[8] = PO, dose 10 mg/kg in 0.5% MC according to Table 3, read-out: PO AUC(0-t)
[9] = PO, dose 10 mg/kg in 0.5% MC according to Table 3, read-out: PO Cmax
[10] = PO, dose 10 mg/kg in 0.5% MC according to Table 3, read-out: PO t1/2 (converted)

| pIC50 (MV-4-11 cells [1]) | pIC50 (MV-4-11 cells [2]) | pIC50 (HL-60 cells) | PO F [3] [%] | AUC(0-t) [3, 4] [ng·h/mL] | clearance [3, 5] [mL/min/kg] | Cmax [3, 6] [ng/mL] | Vd [3, 5] [L/kg] | half-life [3, 7] [h] | AUC(0-t) [3, 8] [ng·h/mL] | Cmax [3, 9] [ng/mL] | half-life [3, 10] [h] | SMILES |
| --- | --- | --- | --- | --- | --- | --- | --- | --- | --- | --- | --- | --- |
| 6.10 |  |  |  |  |  |  |  |  |  |  |  | CCN(C(=O)c1cc(F)ccc1N1CCN(C2CCN(Cc3ccc4[nH]c(C#N)cc4c3C)C2)c2ncncc21)C(C)C (stereo not shown) [Comparative Compound 2] |
|  | 7.84 | 5.69 |  |  |  |  |  |  |  |  |  | CNc1nc(NC2CCN(Cc3ccc4c(cc(C#N)n4C[C@H](C)N4CCN(S(C)(=O)=O)CC4)c3C)CC2)c2cc(CC(F)(F)F)sc2n1 [KO539] |
| 6.53 |  |  |  |  |  |  |  |  |  |  |  | CCN(C(=O)c1cc(F)ccc1N1CCN(C2CCN(C[C@H]3CC[C@H](NS(C)(=O)=O)CC3)C2)c2ncncc21)C(C)C (stereo partly shown) [Comparative Compound 1] |
|  |  |  | 13.50 | 169 | 92.4 | 376 | 30.6 | 5.98 | 228 | 101 | 5.12 | CCN(C(=O)c1cc(F)ccc1N1CCN(C2CCN(Cc3ccc4c(cc(C#N)n4CC4CNC4)c3C)CC2)c2ncncc21)C(C)C [Comparative Comp. 9] |
|  |  |  | 13.85 | 85.7 | 185 | 271 | 9.61 | 2.06 | 119 | 41.9 | 1.8 | CCN(C(=O)c1cc(F)ccc1N1CCN(C2CCN(Cc3ccc4c(cc(C#N)n4C[C@@H]4CCNC4)c3C)CC2)c2ncncc21)C(C)C [Comparative Comp. 8] |
|  |  |  | 49.68 | 16.9 | 947 | 16.2 | 59.4 | 0.82 | 83.8 | 33.3 | 1.26 | CCN(C(=O)c1cc(F)ccc1N1CCN(C2CCN(Cc3ccc4c(cc(C#N)n4CC4COC4)c3C)CC2)c2ncncc21)C(C)C [Comparative Comp. 10] |
|  |  |  | 3.7 | 264 | 62.1 | 152 | 6.62 | 1.55 | 119 | 27 | 2.29 | CCN(C(=O)c1cc(F)ccc1N1CCN(C2CCN(Cc3ccc4[nH]c(C#N)cc4c3C)CC2)c2ncncc21)C(C)C [Comparative Comp. 7] |
